The assay concerns the target T1, F508delCFTR (Homo sapiens, UniProt P13569, DEL508-508).
T1 construct: expressed in transfected cells; host or cells: CFBE41o- human lung derived epithelial cells (CFBE41o-F508delCFTR-HRP), doxycycline-inducible
The assay can be described thus: Cell Surface Expression-Horse Radish Peroxidase (CSE-HRP) Assay.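 For EC50 (with co-corrector): co-corrector chromenyl benzoic acid corrector at 2 or 3 µM.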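 For Maximum % activity (without co-corrector): % of on-plate positive control chromenyl benzoic acid corrector at 2 or 3 µM.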 Type of assay: cell-based. As to conditions: for Maximum % activity (with co-corrector) / Emax: maximum at any tested concentration; for Emax: read-out: Maximum % activity (without co-corrector). The gist of the method:
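Corrector compounds were given as 8-point 3-fold series from 20 or 30 μM, with or without a 2 μM co-corrector, for 18-24 h at 33 °C. Surface HRP was read by luminol luminescence as % of positive control; variable-Hill-slope sigmoidal fitting gave EC50 from triplicate plates.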

Where [1] appears, read: test compound with co-corrector.
Setting [2] is: test compound with co-corrector, read-out: EC50 (with co-corrector).
Where [3] appears, read: test compound without co-corrector.
Setting [4] is: test compound without co-corrector, read-out: EC50 (without co-corrector).

Each structure is given as a SMILES string. Read-outs that look alike come from different tables or passages of the source. Marks after values point to notes of the source that are not given here.

T1 sequence (P13569 with tags, fused parts or gaps DEL508-508): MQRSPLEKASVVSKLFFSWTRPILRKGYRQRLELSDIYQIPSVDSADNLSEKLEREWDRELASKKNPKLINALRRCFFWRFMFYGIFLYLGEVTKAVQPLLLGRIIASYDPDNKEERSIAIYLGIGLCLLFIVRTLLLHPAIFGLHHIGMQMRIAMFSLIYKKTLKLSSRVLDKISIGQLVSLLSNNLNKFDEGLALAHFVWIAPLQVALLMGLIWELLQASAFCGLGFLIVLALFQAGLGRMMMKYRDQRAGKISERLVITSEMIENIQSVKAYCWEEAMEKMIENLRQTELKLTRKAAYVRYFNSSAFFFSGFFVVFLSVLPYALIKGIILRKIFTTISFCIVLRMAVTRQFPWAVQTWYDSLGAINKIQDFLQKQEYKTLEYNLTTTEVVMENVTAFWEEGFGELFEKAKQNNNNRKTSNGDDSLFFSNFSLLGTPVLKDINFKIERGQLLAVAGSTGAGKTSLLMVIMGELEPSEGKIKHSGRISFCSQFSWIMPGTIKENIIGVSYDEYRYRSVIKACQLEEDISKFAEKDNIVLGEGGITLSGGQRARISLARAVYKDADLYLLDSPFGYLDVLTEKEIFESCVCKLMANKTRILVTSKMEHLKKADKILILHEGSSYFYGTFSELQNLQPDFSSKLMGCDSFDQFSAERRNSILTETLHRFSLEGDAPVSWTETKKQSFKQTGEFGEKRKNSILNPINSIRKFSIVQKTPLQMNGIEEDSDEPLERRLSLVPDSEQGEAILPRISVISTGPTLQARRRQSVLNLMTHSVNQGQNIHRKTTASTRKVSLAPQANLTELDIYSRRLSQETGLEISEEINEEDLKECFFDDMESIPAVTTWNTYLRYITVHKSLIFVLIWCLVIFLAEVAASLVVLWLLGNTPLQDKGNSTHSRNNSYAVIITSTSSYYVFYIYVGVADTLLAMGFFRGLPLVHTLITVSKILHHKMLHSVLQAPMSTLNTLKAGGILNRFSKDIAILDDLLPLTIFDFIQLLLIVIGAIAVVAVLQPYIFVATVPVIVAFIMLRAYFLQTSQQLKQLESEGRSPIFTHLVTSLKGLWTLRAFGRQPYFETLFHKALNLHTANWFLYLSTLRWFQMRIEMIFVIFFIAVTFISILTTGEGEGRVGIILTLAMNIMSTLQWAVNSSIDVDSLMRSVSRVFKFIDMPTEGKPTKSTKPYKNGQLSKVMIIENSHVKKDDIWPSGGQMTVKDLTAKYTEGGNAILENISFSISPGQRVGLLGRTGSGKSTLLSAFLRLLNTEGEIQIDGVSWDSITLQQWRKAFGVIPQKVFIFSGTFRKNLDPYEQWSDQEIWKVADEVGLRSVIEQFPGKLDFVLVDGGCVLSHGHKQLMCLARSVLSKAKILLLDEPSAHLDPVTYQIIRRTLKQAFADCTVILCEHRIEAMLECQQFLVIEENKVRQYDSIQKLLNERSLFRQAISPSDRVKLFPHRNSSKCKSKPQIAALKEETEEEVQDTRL

Consider `Cc1cnc(N2CCCC2)c(C2(C(=O)NS(=O)(=O)c3cccc4ncccc34)CC2)c1` [GII-38, 1-[5-methyl-2-(pyrrolidin-1-yl)pyridin-3-yl]-N-(quinoline-5-sulfonyl)cyclopropane-1-carboxamide], for which, under setting [1], the “Maximum % activity (with co-corrector)” value is “+++ (≥350)”. Also, the EC50 runs as follows: under setting [2], 3 to 10 µM; under setting [4], 3 to 10 µM. Also, the Emax under setting [3] was over 150%.

As to `Cc1cnc(C2(C(=O)NS(=O)(=O)c3cccc4[nH]ccc34)CC2)c(C2CC2)c1` [GII-39, 1-(3-cyclopropyl-5-methylpyridin-2-yl)-N-(1H-indole-4-sulfonyl)cyclopropane-1-carboxamide], the “Maximum % activity (with co-corrector)” value under setting [1] was “++ (≥150 and <350)”. Besides, the EC50 is 3 to 10 µM under setting [2] and 3 to 10 µM under setting [4]. For the same compound, the Emax under setting [3] lay within 50 to 150%.

Take `COc1cnc(N2CCCC2)c(C2(C(=O)NS(=O)(=O)c3cccc4ncccc34)CC2)c1` [GII-40, 1-[5-methoxy-2-(pyrrolidin-1-yl)pyridin-3-yl]-N-(quinoline-5-sulfonyl)cyclopropane-1-carboxamide]: the “Maximum % activity (with co-corrector)” value under setting [1] is reported as “+++ (≥350)”. Further, the concentration giving a half-maximal response (EC50) lay in the range of 3 to 10 µM under setting [2] and 3 to 10 µM under setting [4]. Moreover, the Emax under setting [3] was over 150%.

Regarding `Cc1cnc(N(C)C)c(C2(C(=O)NS(=O)(=O)c3cccc4ncccc34)CC2)c1` [GII-41, 1-[2-(dimethylamino)-5-methylpyridin-3-yl]-N-(quinoline-5-sulfonyl)cyclopropane-1-carboxamide], under setting [1], the “Maximum % activity (with co-corrector)” value is given as “+++ (≥350)”. Also, the EC50 by setting is: under setting [2], 3 to 10 µM; under setting [4], 3 to 10 µM. Under setting [3], the Emax fell in the range of 50 to 150%.

Regarding `COCCOc1ncc(OC)cc1C1(C(=O)NS(=O)(=O)c2cccc3nc(C)ccc23)CC1` [GII-42, 1-[5-methoxy-2-(2-methoxyethoxy)pyridin-3-yl]-N-(2-methylquinoline-5-sulfonyl)cyclopropane-1-carboxamide], the “Maximum % activity (with co-corrector)” value under setting [1] was “++ (≥150 and <350)”. Besides, the EC50 under setting [2] was in the range of 3 to 10 µM. In addition, under setting [3], the “EC50 (without co-corrector)” value was “++^a” and the Emax was 50 to 150%.

With `COCCOc1ncc(OC)cc1C1(C(=O)NS(=O)(=O)c2cccc3[nH]ccc23)CC1` [GII-43, N-(1H-indole-4-siilfonyl)-1-[5-methoxy-2-(2-methoxyethoxy)pyridin-3-yl]cyclopropane-1-carboxamide], the “Maximum % activity (with co-corrector)” value under setting [1] was “++ (≥150 and <350)”. Moreover, under setting [2], the concentration giving a half-maximal response (EC50) was in the range of 3 to 10 µM. For the same compound, under setting [3], the “EC50 (without co-corrector)” value is listed as “++^a” and the Emax is 50 to 150%.

`COCCOc1ncc(OC)cc1C1(C(=O)NS(=O)(=O)c2cccc3ncccc23)CC1` [GII-44, 1-[5-methoxy-2-(2-methoxyethoxy)pyridin-3-yl]-N-(quinoline-5-sulfonyl)cyclopropane-1-carboxamide]: under setting [1], the “EC50 (with co-corrector)” value is “++^a”; the “Maximum % activity (with co-corrector)” value is “++ (≥150 and <350)”. Under setting [3], the “EC50 (without co-corrector)” value is on record as “++^a” and the Emax was in the range of 50 to 150%.

`COCCOc1cnc(OC)cc1C1(C(=O)NS(=O)(=O)c2cccc3[nH]ccc23)CC1` [GII-45, N-(1H-indole-4-sulfonyl)-1-[2-methoxy-5-(2-methoxyethoxy)pyridin-4-yl]cyclopropane-1-carboxamide]: the “Maximum % activity (with co-corrector)” value under setting [1] is on record as “+++ (≥350)”. The EC50 by setting is: under setting [2], 3 to 10 µM; under setting [4], 3 to 10 µM. Also, the Emax under setting [3] is over 150%.

Consider `COCCOc1cnc(OC)cc1C1(C(=O)NS(=O)(=O)c2cccc3nc(C)ccc23)CC1` [GII-46, 1-[2-methoxy-5-(2-methoxyethoxy)pyridin-4-yl]-N-(2-methylquinoline-5-sulfonyl)cyclopropane-1-carboxamide], for which the “Maximum % activity (with co-corrector)” value under setting [1] is “++ (≥150 and <350)”. Under setting [2], the EC50 was in the range of 3 to 10 µM. Under setting [3], the “EC50 (without co-corrector)” value is “++^a” and the Emax is 50 to 150%.

For `CCc1cnc(N(C)C)c(C2(C(=O)NS(=O)(=O)c3cccc4ncccc34)CC2)c1` [GII-47, 1-[2-(dimethylamino)-5-ethylpyridin-3-yl]-N-(quinoline-5-sulfonyl)cyclopropane-1-carboxamide], the “Maximum % activity (with co-corrector)” value under setting [1] was “+++ (≥350)”. The EC50 is over 10 µM under setting [2] and 3 to 10 µM under setting [4]. The Emax under setting [3] is over 150%.

Consider `CCc1cnc(N(C)C)c(C2(C(=O)NS(=O)(=O)c3cccc4nc(C)ccc34)CC2)c1` [GII-48, 1-[2-(dimethylamino)-5-ethylpyridin-3-yl]-N-(2-methylquinoline-5-sulfonyl)cyclopropane-1-carboxamide], for which the “Maximum % activity (with co-corrector)” value under setting [1] was “+++ (≥350)”. Moreover, the EC50 is 3 to 10 µM under setting [2] and 3 to 10 µM under setting [4]. Further, the Emax under setting [3] is over 150%.

In the case of `CCc1cnc(N(C)C)c(C2(C(=O)NS(=O)(=O)c3cccc4[nH]ccc34)CC2)c1` [GII-49, 1-[2-(dimethylamino)-5-ethylpyridin-3-yl]-N-(1H-indole-4-sulfonyl)cyclopropane-1-carboxamide], under setting [1], the “Maximum % activity (with co-corrector)” value is listed as “+++ (≥350)”. The EC50 is, setting by setting: under setting [2], 3 to 10 µM; under setting [4], 3 to 10 µM. For the same compound, under setting [3], the Emax was over 150%.

On to `COCCOc1ncc(C)cc1C1(C(=O)NS(=O)(=O)c2cccc3nc(C)ccc23)CC1` [GII-50, 1-[2-(2-methoxyethoxy)-5-methylpyridin-3-yl]-N-(2-methylquinoline-5-sulfonyl)cyclopropane-1-carboxamide], for which the “Maximum % activity (with co-corrector)” value under setting [1] is recorded as “+++ (≥350)”. The EC50 under setting [2] lay within 3 to 10 µM. Moreover, under setting [3], the “EC50 (without co-corrector)” value is “++^a” and the Emax was over 150%.

`CC(C)Oc1ccc(C2(C(=O)NS(=O)(=O)c3cccc4ncccc34)CC2)c(N(C)C)n1` [GII-51, 1-{2-(dimethylamino)-6-[(propan-2-yl)oxy]pyridin-3-yl}-N-(quinoline-5-sulfonyl)cyclopropane-1-carboxamide]: the “Maximum % activity (with co-corrector)” value under setting [1] is “++ (≥150 and <350)”. The EC50 under setting [2] is 3 to 10 µM. Moreover, under setting [3], the “EC50 (without co-corrector)” value was “++^a” and the Emax lay in the range of 50 to 150%.

On to `COCCOc1ncc(C)cc1C1(C(=O)NS(=O)(=O)c2cccc3ncccc23)CC1` [GII-52, 1-[2-(2-methoxyethoxy)-5-methylpyridin-3-yl]-N-(quinoline-5-sulfonyl)cyclopropane-1-carboxamide], for which the “Maximum % activity (with co-corrector)” value under setting [1] is “++ (≥150 and <350)”. For the same compound, the EC50 was in the range of 3 to 10 µM under setting [2] and 3 to 10 µM under setting [4]. The Emax under setting [3] fell in the range of 50 to 150%.

With `COCCOc1ncc(C)cc1C1(C(=O)NS(=O)(=O)c2cccc3[nH]ccc23)CC1` [GII-53, N-(1H-indolc-4-sulfonyl)-1-[2-(2-methoxyethoxy)-5-methylpyridin-3-yl]cyclopropane-1-carboxamide], the “Maximum % activity (with co-corrector)” value under setting [1] is given as “+++ (≥350)”. In addition, the concentration giving a half-maximal response (EC50) under setting [2] lay in the range of 3 to 10 µM and the EC50 under setting [4] lay within 3 to 10 µM. Also, the Emax under setting [3] is over 150%.

As for `CCc1cnc(N2CCC(OC(C)C)CC2)c(C2(C(=O)NS(=O)(=O)c3cccc4ncccc34)CC2)c1` [GII-54, 1-(5-ethyl-2-{4-[(propan-2-yl)oxy]piperidin-1-yl}pyridin-3-yl)-N-(quinoline-5-sulfonyl)cyclopropane-1-carboxamide], the “Maximum % activity (with co-corrector)” value under setting [1] is listed as “+++ (≥350)”. Further, the EC50 reads like this: under setting [2], 3 to 10 µM; under setting [4], 3 to 10 µM. In addition, under setting [3], the Emax is over 150%.

Take `CCc1cnc(N2CCC(OC(C)C)CC2)c(C2(C(=O)NS(=O)(=O)c3cccc4nc(C)ccc34)CC2)c1` [GII-55, 1-(5-ethyl-2-{4-[(propan-2-yl)oxy]piperidin-1-yl}pyridin-3-yl)-N-(2-methylquinoline-5-sulfonyl)cyclopropane-1-carboxamide]: the “Maximum % activity (with co-corrector)” value under setting [1] is listed as “+++ (≥350)”. Besides, the half-maximal effective concentration (EC50) lay in the range of 3 to 10 µM under setting [2] and 3 to 10 µM under setting [4]. For the same compound, the Emax under setting [3] is over 150%.

Consider `CCc1cnc(OCCOC)c(C2(C(=O)NS(=O)(=O)c3cccc4nc(C)ccc34)CC2)c1` [GII-56, 1-[5-ethyl-2-(2-methoxyethoxy)pyridin-3-yl]-N-(2-methylquinoline-5-sulfonyl)cyclopropane-1-carboxamide], for which the “Maximum % activity (with co-corrector)” value under setting [1] is “+++ (≥350)”. Besides, the EC50 reads like this: under setting [2], 3 to 10 µM; under setting [4], 3 to 10 µM. Also, under setting [3], the Emax was over 150%.

Take `CCc1cnc(N2CCC(OC)CC2)c(C2(C(=O)NS(=O)(=O)c3cccc4ncccc34)CC2)c1` [GII-57, 1-[5-ethyl-2-(4-methoxypiperidin-1-yl)pyridin-3-yl]-N-(quinoline-5-sulfonyl)cyclopropane-1-carboxamide]: the “Maximum % activity (with co-corrector)” value under setting [1] is recorded as “+++ (≥350)”. For the same compound, the EC50 runs as follows: under setting [2], 3 to 10 µM; under setting [4], 3 to 10 µM. Moreover, under setting [3], the Emax was over 150%.

For `CCc1cnc(N2CCC(OC)CC2)c(C2(C(=O)NS(=O)(=O)c3cccc4[nH]ccc34)CC2)c1` [GII-58, 1-[5-ethyl-2-(4-methoxypiperidin-1-yl)pyridin-3-yl]-N-(1H-indole-4-sulfonyl)cyclopropane-1-carboxamide], under setting [1], the “Maximum % activity (with co-corrector)” value was “+++ (≥350)”. Also, the EC50 lay within 3 to 10 µM under setting [2] and 3 to 10 µM under setting [4]. Further, the Emax under setting [3] is over 150%.

As for `CCc1cnc(N2CCC(COC)CC2)c(C2(C(=O)NS(=O)(=O)c3cccc4ncccc34)CC2)c1` [GII-59, 1-{5-ethyl-2-[4-(methoxymethyl)piperidin-1-yl]pyridin-3-yl}-N-(quinoline-5-sulfonyl)cyclopropane-1-carboxamide], the “Maximum % activity (with co-corrector)” value under setting [1] is “+++ (≥350)”. In addition, the EC50 fell in the range of 3 to 10 µM under setting [2] and 3 to 10 µM under setting [4]. Also, the Emax under setting [3] is over 150%.

(Values after US10829473B2, “Modulators of the cystic fibrosis transmembrane conductance regulator protein and methods of use” (AbbVie Overseas S.Á.R.L., priority 2017, dated 2020).)
